{
  "source": "patent US6420361B1",
  "about": "“Soil pesticide” (priority 1999, dated 2002)",
  "origin": "cited, not measured here",
  "data": [
    {"molecule": "CN1CSC(=S)N(C)C1", "note": "[TDTT, tetrahydro-3,5-dimethyl-2H-1,3,5-thiadiazine-2-thione]", "values": [
      {"measurement": "Solubility and stability in commonly used agricultural solvents or carriers", "value": "not very soluble or stable"},
      {"measurement": "Concentration limit in liquid formulation", "setting": "applied as a liquid formulation", "value": "less than 15 % by weight"}
    ]}
  ]
}
